Patent publication US20260365646A1, “AKT1 MODULATORS” (Alterome Therapeutics, Inc., priority 2022, published 2026)
pEC50: −log10 of the molar value.

Biological target: T1, full length AKT E17K (Homo sapiens, UniProt P31749, E17K)
T1 construct: host or cells: HEK-293 (ATCC CRL-1573)
Assay: NanoBRET Target Engagement (TE) Intracellular Kinase Assay
Format: cell-based
Conditions: not given
Source text: The NanoBRET™ Target Engagement (TE) Intracellular Kinase Assays are based on the NanoBRET™ System (Promega Corporation), an energy transfer technique designed to measure molecular proximity in living cells. The NanoBRET™ TE Assays measure the apparent affinity of test compounds by competitive displacement of the NanoBRET™ tracer compound, which is a cell permeable molecule engineered to be reversibly bound to a NanoLuc® luciferase-kinase fusion expressed in cells. For compound screening, when a test compound binds to the selected kinase, the BRET signal is attenuated. […] All cells were evaluated for viability prior to transfection and optimization of the transfection was done prior to experimentation. […] Following transfection, cells were washed and resuspended in Opti-MEM. NanoBRET assays were performed in white, 384-well plates (Corning) at a density of 2×10^5 cells/well. All example compounds were prepared as concentrated stock solutions in DMSO (Sigma-Aldrich). Compounds are dissolved in DMSO to make 10 mM stock solution. […] A Labcyte ECHO 550 compound dispenser was used to facilitate compound transfer directly to cells. Cells were equilibrated for 2 hr with energy transfer probes and example compound prior to BRET measurements. […] For target engagement analysis, the energy transfer probes were added to the cells at concentrations optimized for the target in question (AKT E17K). Following compound incubation, NanoBRET NanoGlo Substrate (Promega Cat #Ni57D) and Extracellular Nanoluc Inhibitor (Promega Cat #N235C) was added according to the manufacturer's recommended protocol, and luminescence was measured on Envision Reader (Perkin Elmer) Multimode Luminometer equipped with 450 nm BPfilter (donor) and 600 nm LPfilter (acceptor), using 0.5 s integration time. Milli-BRET units (mBU) are calculated by multiplying the raw BRET values by 1000. Apparent tracer affinity values (EC50) were determined using the sigmoidal dose-response (variable slope). Competitive displacement data were then plotted and data were fit to determine the EC50 value for each example compound.

T1 sequence (P31749 whole entry E17K): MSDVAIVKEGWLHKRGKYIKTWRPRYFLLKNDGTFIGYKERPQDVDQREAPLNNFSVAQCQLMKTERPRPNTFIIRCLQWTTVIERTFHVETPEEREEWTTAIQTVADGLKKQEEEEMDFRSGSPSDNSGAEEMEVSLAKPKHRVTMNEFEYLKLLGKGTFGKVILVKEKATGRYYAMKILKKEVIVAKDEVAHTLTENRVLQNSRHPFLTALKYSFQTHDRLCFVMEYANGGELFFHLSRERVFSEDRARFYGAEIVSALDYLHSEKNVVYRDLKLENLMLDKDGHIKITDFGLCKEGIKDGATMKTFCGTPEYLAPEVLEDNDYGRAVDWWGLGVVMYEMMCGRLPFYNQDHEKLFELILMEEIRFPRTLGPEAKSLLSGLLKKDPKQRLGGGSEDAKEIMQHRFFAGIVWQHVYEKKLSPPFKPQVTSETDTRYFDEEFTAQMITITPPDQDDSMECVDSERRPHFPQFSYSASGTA

pEC50 | SMILES
< 6.22 | Nc1ncccc1-c1nc2ccc(-c3ccccc3)nc2n1-c1ccc(CN2CCN(c3c(O)c(=O)c3=O)CC2)cc1 [Example 22, 3-(4-(4-(2-(2-Aminopyridin-3-yl)-5-phenyl-3H-imidazo[4,5-b]pyridin-3-yl)benzyl)piperazin-1-yl)-4-hydroxycyclobut-3-ene-1,2-dione]
< 6.22 | COc1c(NCc2ccc(-n3c(-c4cccnc4N)nc4cccnc43)cc2)c(=O)c1=O [Example 2, 3-((4-(2-(2-Aminopyridin-3-yl)-3H-imidazo[4,5-b]pyridin-3-yl)benzyl)amino)-4-methoxycyclobut-3-ene-1,2-dione]
< 6.22 | Nc1ncccc1-c1nc2ccc(-c3ccccc3)nc2n1-c1ccc(CN2CCN3c4c(c(=O)c4=O)OCC[C@H]3C2)cc1 [Example 89, (S)-7-(4-(2-(2-aminopyridin-3-yl)-5-phenyl-3H-imidazo[4,5-b]pyridin-3-yl)benzyl)-5,5a,6,7,8,9-hexahydro-4H-cyclobuta[b]pyrazino[1,2-d][1,4]oxazepine-1,2-dione]
6.22 to 7.22 | COc1c(N(C)C2CCN(Cc3ccc(-n4c(-c5cccnc5N)nc5cc(-c6ccccc6)cnc54)cc3)CC2)c(=O)c1=O [Example 32, 3-((1-(4-(2-(2-Aminopyridin-3-yl)-6-phenyl-3H-imidazo[4,5-b]pyridin-3-yl)benzyl)piperidin-4-yl)(methyl)amino)-4-methoxycyclobut-3-ene-1,2-dione]
6.22 to 7.22 | COc1c(N2CCN(Cc3ccc(-n4c(-c5cccnc5N)nc5ccc(-c6ccccc6)nc54)cc3)C[C@H]2C)c(=O)c1=O [Example 67, (R)-3-(4-(4-(2-(2-aminopyridin-3-yl)-5-phenyl-3H-imidazo[4,5-b]pyridin-3-yl)benzyl)-2-methylpiperazin-1-yl)-4-methoxycyclobut-3-ene-1,2-dione]
7.22 to 7.82 | COc1c(N2CCCC3(CCN(Cc4ccc(-n5c(-c6cccnc6N)nc6ccc(-c7ccccc7)nc65)cc4)C3)C2)c(=O)c1=O (centres unmarked) [Example 58, 3-(2-(4-(2-(2-Aminopyridin-3-yl)-5-phenyl-3H-imidazo[4,5-b]pyridin-3-yl)benzyl)-2,7-diazaspiro[4.5]decan-7-yl)-4-methoxycyclobut-3-ene-1,2-dione]
7.22 to 7.82 | COc1c(NC2CCN(Cc3ccc(-n4c(-c5cccnc5N)nc5cccnc54)cc3)CC2)c(=O)c1=O [Example 3, 3-((1-(4-(2-(2-Aminopyridin-3-yl)-3H-imidazo[4,5-b]pyridin-3-yl)benzyl)piperidin-4-yl)amino)-4-methoxycyclobut-3-ene-1,2-dione]
6.22 to 7.22 | COc1c(N2C3CCC2CN(Cc2ccc(-n4c(-c5cccnc5N)nc5ccc(-c6ccccc6)nc54)cc2)C3)c(=O)c1=O [Example 72, 3-(3-(4-(2-(2-aminopyridin-3-yl)-5-phenyl-3H-imidazo[4,5-b]pyridin-3-yl)benzyl)-3,8-diazabicyclo[3.2.1]octan-8-yl)-4-methoxycyclobut-3-ene-1,2-dione]
6.22 to 7.22 | COc1c(N[C@H]2CCCN(Cc3ccc(-n4c(-c5cccnc5N)nc5ccc(-c6ccccc6)nc54)cc3)C2)c(=O)c1=O [Example 29, (S)-3-((1-(4-(2-(2-Aminopyridin-3-yl)-5-phenyl-3H-imidazo[4,5-b]pyridin-3-yl)benzyl)piperidin-3-yl)amino)-4-methoxycyclobut-3-ene-1,2-dione]
7.22 to 7.82 | COc1c(N2CCC3(CCN(Cc4ccc(-n5c(-c6cccnc6N)nc6ccc(-c7ccccc7)nc65)cc4)CC3)C2)c(=O)c1=O [Example 54, 3-(8-(4-(2-(2-Aminopyridin-3-yl)-5-phenyl-3H-imidazo[4,5-b]pyridin-3-yl)benzyl)-2,8-diazaspiro[4.5]decan-2-yl)-4-methoxycyclobut-3-ene-1,2-dione]
7.22 to 7.82 | CCSc1c(N2CCC3(CC2)CN(Cc2ccc(-n4c(-c5cccnc5N)nc5ccc(-c6ccccc6)nc54)cc2)C3)c(=O)c1=O [Example 61, 3-(2-(4-(2-(2-Aminopyridin-3-yl)-5-phenyl-3H-imidazo[4,5-b]pyridin-3-yl)benzyl)-2,7-diazaspiro[3.5]nonan-7-yl)-4-(ethylthio)cyclobut-3-ene-1,2-dione]

Same assay, conditions: read-out: NanoBRET AKT1E17K EC50; HEK-293 cells transfected with NanoLuc-AKT E17K; competitive displacement of NanoBRET tracer; 2 hr equilibration; 10-point 3-fold dilution

pEC50 | SMILES
> 7.82 | COc1c(N(C)C2CCN(Cc3ccc(-n4c(-c5cccnc5N)nc5ccc(-c6ccccc6)nc54)cc3)CC2)c(=O)c1=O [Example 27, 3-((1-(4-(2-(2-aminopyridin-3-yl)-5-phenyl-3H-imidazo[4,5-b]pyridin-3-yl)benzyl)piperidin-4-yl)(methyl)amino)-4-methoxycyclobut-3-ene-1,2-dione]
> 7.82 | COc1c(N2CCC3(CC2)CN(Cc2ccc(-n4c(-c5cccnc5N)nc5ccc(-c6ccccc6)nc54)cc2)C3)c(=O)c1=O [Example 60, 3-(2-(4-(2-(2-Aminopyridin-3-yl)-5-phenyl-3H-imidazo[4,5-b]pyridin-3-yl)benzyl)-2,7-diazaspiro[3.5]nonan-7-yl)-4-methoxycyclobut-3-ene-1,2-dione]
> 7.82 | COc1c(NC2CN(Cc3ccc(-n4c(-c5cccnc5N)nc5ccc(-c6ccccc6)nc54)cc3)C2)c(=O)c1=O [Example 51, 3-((1-(4-(2-(2-Aminopyridin-3-yl)-5-phenyl-3H-imidazo[4,5-b]pyridin-3-yl)benzyl)azetidin-3-yl)amino)-4-methoxycyclobut-3-ene-1,2-dione]
> 7.82 | COc1c(N2CCC(OCc3ccc(-n4c(-c5cccnc5N)nc5ccc(-c6ccccc6)nc54)cc3)CC2)c(=O)c1=O [Example 78, 3-(4-((4-(2-(2-aminopyridin-3-yl)-5-phenyl-3H-imidazo[4,5-b]pyridin-3-yl)benzyl)oxy)piperidin-1-yl)-4-methoxycyclobut-3-ene-1,2-dione]
> 7.82 | COc1c(NN2CCN(Cc3ccc(-n4c(-c5cccnc5N)nc5ccc(-c6ccccc6)nc54)cc3)CC2)c(=O)c1=O [Example 83, 3-((4-(4-(2-(2-aminopyridin-3-yl)-5-phenyl-3H-imidazo[4,5-b]pyridin-3-yl)benzyl)piperazin-1-yl)amino)-4-methoxycyclobut-3-ene-1,2-dione]
> 7.82 | COc1c(N2CC3(CCN(Cc4ccc(-n5c(-c6cccnc6N)nc6ccc(-c7ccccc7)nc65)cc4)C3)C2)c(=O)c1=O [Example 55, 3-(6-(4-(2-(2-Aminopyridin-3-yl)-5-phenyl-3H-imidazo[4,5-b]pyridin-3-yl)benzyl)-2,6-diazaspiro[3.4]octan-2-yl)-4-methoxycyclobut-3-ene-1,2-dione]
> 7.82 | COc1c(N(C)[C@H]2CCN(Cc3ccc(-n4c(-c5cccnc5N)nc5ccc(-c6ccccc6)nc54)cc3)C2)c(=O)c1=O [Example 81, (S)-3-((1-(4-(2-(2-aminopyridin-3-yl)-5-phenyl-3H-imidazo[4,5-b]pyridin-3-yl)benzyl)pyrrolidin-3-yl)(methyl)amino)-4-methoxycyclobut-3-ene-1,2-dione]
> 7.82 | CCSc1c(N(C)N2CCN(Cc3ccc(-n4c(-c5cccnc5N)nc5ccc(-c6ccccc6)nc54)cc3)CC2)c(=O)c1=O [Example 97, 3-((4-(4-(2-(2-aminopyridin-3-yl)-5-phenyl-3H-imidazo[4,5-b]pyridin-3-yl)benzyl)piperazin-1-yl)(methyl)amino)-4-(ethylthio)cyclobut-3-ene-1,2-dione]
> 7.82 | COc1c(NC2CCCN(Cc3ccc(-n4c(-c5cccnc5N)nc5ccc(-c6ccccc6)nc54)cc3)CC2)c(=O)c1=O (centres unmarked) [Example 73, 3-((1-(4-(2-(2-aminopyridin-3-yl)-5-phenyl-3H-imidazo[4,5-b]pyridin-3-yl)benzyl)azepan-4-yl)amino)-4-methoxycyclobut-3-ene-1,2-dione]
